Reference: ChEMBL document CHEMBL1201862, “PubChem BioAssay data set” (2004)
Activity calls are given as the source filed them.

Key:
[1] = Dd2 parasite growth inhibition in erythrocytes – SYBR Green, dry powder samples, set 9, dose response (AID 1159568); type: functional, cell-based
[2] = IC50 of insulin release inhibition, rat insulinoma INS-1E line, 5 mM glucose, cell-based (AID 1117331); type: functional
[3] = target: T1, Tyrosine-protein phosphatase non-receptor type 7 (Homo sapiens, UniProt P35236); assay: HePTP tyrosine phosphatase activity blockers – biochemical, absorbance, leukemia target, primary screen (AID 521); type: functional
T1 sequence (P35236 whole entry): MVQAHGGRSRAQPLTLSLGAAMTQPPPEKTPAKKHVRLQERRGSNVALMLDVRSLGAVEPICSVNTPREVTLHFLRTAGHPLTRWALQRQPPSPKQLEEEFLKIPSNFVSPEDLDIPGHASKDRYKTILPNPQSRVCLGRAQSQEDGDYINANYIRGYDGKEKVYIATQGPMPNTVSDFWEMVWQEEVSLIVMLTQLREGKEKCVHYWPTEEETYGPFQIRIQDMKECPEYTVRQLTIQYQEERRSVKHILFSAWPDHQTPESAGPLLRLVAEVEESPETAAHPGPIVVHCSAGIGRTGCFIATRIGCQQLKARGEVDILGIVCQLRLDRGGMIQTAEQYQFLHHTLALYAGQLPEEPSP

[4] = IGROV1 cell killing – plate reader, dry powder samples, PAX8 inhibitor project, dose response (AID 743043); type: functional, cell-based; settings: IGROV-1
[5] = OVCAR-3 cell viability loss – plate reader, dry powder samples, PAX8 inhibitor project, dose response (AID 743044); type: functional, cell-based
[6] = target: Paired box protein Pax-8 (Homo sapiens, UniProt Q06710); assay: PAX8 transcriptional activity inhibition in RMG-I – RMG-I cells, luciferase, cherry-pick, dose response (AID 687027); type: functional, cell-based;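 further: luciferase reporter driven by Pax8 target thyroperoxidase promoter measured by SteadyGlo luminescence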
Sequence of Paired box protein Pax-8 (Q06710 whole entry): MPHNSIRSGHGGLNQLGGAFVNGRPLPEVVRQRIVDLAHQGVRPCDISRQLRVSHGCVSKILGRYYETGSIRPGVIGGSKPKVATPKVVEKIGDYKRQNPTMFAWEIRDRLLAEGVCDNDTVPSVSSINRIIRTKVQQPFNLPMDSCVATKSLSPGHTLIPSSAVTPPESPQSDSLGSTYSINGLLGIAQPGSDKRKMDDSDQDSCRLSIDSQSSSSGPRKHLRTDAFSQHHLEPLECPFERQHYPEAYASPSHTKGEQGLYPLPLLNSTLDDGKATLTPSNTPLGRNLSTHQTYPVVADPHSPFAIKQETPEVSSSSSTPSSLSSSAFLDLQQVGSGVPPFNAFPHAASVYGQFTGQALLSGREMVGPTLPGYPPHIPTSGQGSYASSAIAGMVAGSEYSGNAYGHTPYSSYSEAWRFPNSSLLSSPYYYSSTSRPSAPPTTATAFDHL

[7] = OVCAR8 cell viability loss – plate reader, dry powder samples, PAX8 project, dose response (AID 743197); type: functional, cell-based; settings: OVCAR-8
[8] = target: Peroxisome proliferator-activated receptor gamma/Nuclear receptor coactivator 3 (Homo sapiens, UniProt P37231); type: functional;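 further: agonist potency for raising coactivator recruitment to the receptor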
Sequence of Peroxisome proliferator-activated receptor gamma/Nuclear receptor coactivator 3 (P37231 whole entry): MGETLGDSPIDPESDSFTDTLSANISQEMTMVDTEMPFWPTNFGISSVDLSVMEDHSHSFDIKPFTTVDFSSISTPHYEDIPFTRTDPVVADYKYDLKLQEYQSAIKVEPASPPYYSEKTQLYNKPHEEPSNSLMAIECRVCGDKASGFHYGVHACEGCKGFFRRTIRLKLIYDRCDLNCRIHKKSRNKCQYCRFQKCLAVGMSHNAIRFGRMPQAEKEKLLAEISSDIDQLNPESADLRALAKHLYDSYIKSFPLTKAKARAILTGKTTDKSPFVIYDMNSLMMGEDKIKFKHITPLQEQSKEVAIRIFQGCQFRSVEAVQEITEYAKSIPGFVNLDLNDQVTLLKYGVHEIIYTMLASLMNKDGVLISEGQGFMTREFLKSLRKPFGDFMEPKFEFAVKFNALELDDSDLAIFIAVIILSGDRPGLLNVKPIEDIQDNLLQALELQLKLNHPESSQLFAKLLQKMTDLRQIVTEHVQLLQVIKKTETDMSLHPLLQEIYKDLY
Sequence of Peroxisome proliferator-activated receptor gamma/Nuclear receptor coactivator 3 (Q9Y6Q9 whole entry, further chain): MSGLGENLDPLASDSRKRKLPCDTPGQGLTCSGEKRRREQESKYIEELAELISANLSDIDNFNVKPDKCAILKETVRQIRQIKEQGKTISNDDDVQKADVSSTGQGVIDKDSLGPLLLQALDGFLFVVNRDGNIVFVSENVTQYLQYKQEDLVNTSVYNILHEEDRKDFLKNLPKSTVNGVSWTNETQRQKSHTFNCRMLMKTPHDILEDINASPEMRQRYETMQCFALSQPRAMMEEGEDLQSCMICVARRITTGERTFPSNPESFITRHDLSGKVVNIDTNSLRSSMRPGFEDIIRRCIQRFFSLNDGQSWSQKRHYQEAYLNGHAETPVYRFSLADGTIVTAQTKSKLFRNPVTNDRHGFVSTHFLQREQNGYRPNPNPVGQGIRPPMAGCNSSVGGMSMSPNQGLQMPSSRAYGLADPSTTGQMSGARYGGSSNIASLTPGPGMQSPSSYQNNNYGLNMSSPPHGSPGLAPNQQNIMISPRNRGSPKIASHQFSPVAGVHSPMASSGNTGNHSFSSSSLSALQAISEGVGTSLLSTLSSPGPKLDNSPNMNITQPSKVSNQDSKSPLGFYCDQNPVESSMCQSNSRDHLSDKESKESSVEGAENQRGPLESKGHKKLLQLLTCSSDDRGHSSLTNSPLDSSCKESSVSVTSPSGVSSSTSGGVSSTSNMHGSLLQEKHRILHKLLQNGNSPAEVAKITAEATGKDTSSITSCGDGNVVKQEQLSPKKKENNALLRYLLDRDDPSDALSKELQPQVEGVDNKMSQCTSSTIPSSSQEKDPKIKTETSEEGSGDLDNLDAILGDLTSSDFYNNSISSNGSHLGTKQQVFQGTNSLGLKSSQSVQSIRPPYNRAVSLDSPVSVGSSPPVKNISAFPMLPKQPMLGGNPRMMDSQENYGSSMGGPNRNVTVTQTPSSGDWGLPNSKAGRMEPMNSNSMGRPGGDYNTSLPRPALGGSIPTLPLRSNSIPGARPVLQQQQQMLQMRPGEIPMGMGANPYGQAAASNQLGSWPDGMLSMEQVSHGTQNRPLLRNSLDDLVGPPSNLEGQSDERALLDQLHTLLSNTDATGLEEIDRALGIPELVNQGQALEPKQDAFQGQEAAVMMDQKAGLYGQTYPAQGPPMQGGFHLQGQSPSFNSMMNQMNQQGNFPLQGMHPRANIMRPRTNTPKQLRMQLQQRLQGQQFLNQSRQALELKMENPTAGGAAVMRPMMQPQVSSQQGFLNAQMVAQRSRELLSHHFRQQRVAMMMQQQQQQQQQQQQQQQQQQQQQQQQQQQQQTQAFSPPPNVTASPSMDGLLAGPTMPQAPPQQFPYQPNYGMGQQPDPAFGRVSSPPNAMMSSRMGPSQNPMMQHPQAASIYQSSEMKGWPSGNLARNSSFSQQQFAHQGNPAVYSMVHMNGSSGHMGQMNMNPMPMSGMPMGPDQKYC

[9] = target: Peroxisome proliferator-activated receptor gamma/Nuclear receptor coactivator 1 (Homo sapiens, UniProt P37231); type: functional;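 further: agonist potency as compounds enhance coactivator SRC-1 recruitment to PPARgamma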
Sequence of Peroxisome proliferator-activated receptor gamma/Nuclear receptor coactivator 1 (P37231 whole entry): as the sequence (P37231 whole entry) above
Sequence of Peroxisome proliferator-activated receptor gamma/Nuclear receptor coactivator 1 (Q15788 whole entry, further chain): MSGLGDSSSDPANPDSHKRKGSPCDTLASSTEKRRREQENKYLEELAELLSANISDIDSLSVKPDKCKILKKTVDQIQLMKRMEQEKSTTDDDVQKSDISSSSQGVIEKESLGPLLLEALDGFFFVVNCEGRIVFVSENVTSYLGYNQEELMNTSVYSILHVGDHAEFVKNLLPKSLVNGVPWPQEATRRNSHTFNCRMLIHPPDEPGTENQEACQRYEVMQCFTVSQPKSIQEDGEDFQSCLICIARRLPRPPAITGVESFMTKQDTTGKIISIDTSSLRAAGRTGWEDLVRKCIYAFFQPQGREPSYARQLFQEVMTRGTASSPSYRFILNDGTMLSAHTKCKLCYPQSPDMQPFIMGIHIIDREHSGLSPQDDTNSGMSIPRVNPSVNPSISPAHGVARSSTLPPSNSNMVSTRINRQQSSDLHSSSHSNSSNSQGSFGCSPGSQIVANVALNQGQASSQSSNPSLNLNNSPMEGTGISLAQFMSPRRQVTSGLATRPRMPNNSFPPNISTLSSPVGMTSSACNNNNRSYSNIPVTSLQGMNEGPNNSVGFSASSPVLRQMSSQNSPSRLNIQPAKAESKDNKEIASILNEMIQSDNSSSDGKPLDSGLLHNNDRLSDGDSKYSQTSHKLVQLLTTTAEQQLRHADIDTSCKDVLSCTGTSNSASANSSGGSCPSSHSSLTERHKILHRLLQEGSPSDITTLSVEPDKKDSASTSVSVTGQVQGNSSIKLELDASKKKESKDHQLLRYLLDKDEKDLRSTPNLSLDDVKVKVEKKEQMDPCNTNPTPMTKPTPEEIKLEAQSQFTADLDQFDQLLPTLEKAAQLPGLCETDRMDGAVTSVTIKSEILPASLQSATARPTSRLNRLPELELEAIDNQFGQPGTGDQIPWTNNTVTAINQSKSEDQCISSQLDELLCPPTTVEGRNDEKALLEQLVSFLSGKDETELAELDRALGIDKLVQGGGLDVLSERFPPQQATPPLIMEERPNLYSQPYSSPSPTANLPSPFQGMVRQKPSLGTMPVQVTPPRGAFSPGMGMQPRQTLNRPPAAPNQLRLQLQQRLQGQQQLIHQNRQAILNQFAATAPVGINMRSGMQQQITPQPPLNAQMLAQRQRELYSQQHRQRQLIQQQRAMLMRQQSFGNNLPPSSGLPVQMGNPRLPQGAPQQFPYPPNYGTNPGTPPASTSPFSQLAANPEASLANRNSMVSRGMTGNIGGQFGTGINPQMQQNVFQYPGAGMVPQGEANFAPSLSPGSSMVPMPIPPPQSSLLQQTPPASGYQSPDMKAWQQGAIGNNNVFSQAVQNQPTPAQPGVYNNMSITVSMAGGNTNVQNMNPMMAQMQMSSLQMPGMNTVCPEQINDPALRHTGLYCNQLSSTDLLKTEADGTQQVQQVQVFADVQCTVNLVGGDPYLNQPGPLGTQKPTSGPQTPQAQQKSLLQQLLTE

[10] = target: Peroxisome proliferator-activated receptor gamma/Nuclear receptor coactivator 2 (Homo sapiens, UniProt P37231); type: functional;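 further: agonist potency for raising coactivator recruitment to the receptor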
[11] = MITF: Counter assay: A375 proliferation Measured in Cell-Based System Using Plate Reader - 2084-03_Inhibitor_Dose_DryPowder_Activity_Set8.; type: functional; settings: A-375
[12] = MITF Orthogonal Assay: SK-MEL-5 CTG Assay Measured in Cell-Based System Using Plate Reader - 2084-02_Inhibitor_Dose_DryPowder_Activity_Set7.; type: functional
[13] = inhibitors of TRPM1-promoter reporter in SK-MEL-5 – cell-based, luciferase, dry powder, set 8, MITF inhibitor project, dose response (AID 624430); type: functional
[14] = cytotoxicity in MITF-independent A375 cells – cell-based, CellTiter-Glo luminescence, dry powder, set 4, counter-screen for MITF inhibitor project, dose response (AID 624364); type: functional; settings: A-375;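 further: A375 melanoma cells are MITF independent so this is a counter screen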
[15] = viability loss in MITF-independent A375 cells – cell-based, CellTiter-Glo luminescence, dry powder, set 2, counter-screen for MITF inhibitor project, dose response (AID 624489); type: functional; settings: A-375;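 further: actives are compounds lowering A375 viability meaning general cytotoxicity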
[16] = target: T2, Induced myeloid leukemia cell differentiation protein Mcl-1 (Homo sapiens, UniProt Q07820); assay: blockers of MCL1 binding to BIM peptide – biochemical, fluorescence polarization, BIM-BH3 peptide, 1536-well, dose response (AID 2217)
T2 sequence (Q07820 whole entry): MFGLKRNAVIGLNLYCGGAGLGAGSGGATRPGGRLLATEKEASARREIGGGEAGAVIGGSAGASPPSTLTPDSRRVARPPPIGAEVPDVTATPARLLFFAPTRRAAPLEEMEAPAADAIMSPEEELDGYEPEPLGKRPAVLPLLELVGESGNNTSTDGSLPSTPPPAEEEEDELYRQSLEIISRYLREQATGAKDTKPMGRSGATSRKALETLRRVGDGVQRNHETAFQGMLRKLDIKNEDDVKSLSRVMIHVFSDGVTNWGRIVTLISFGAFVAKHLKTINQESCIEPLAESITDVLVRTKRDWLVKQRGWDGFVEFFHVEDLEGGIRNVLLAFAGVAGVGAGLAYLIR

[17] = target: Bcl-2-like protein 1 (Homo sapiens, UniProt Q07817); assay: blockers of BCLXL peptide binding – biochemical, fluorescence polarization, 1536-well, selectivity assay for MCL1 inhibitor project, dose response (AID 2218)
[18] = target: Eukaryotic translation initiation factor 4E (Mus musculus, UniProt P63073); assay: blockers of eIF4G binding by eIF4E – biochemical, TR-FRET, dose response (AID 855); type: functional;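 further: potency for disrupting eIF4E binding to eIF4GI seen as loss of FRET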
Sequence of Eukaryotic translation initiation factor 4E (P63073 whole entry): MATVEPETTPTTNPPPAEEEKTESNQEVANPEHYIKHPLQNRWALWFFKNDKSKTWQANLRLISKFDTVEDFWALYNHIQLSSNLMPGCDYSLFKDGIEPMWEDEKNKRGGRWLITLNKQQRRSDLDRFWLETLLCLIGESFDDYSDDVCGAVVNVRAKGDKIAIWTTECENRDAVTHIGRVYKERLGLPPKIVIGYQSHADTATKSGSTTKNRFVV

[19] = target: T3, Genome polyprotein (Hepatitis C virus, UniProt Q2Q167); assay: disruption of hepatitis C core self-association – biochemical, TR-FRET, dose response (AID 2159); parameters: species or system Hepacivirus hominis;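 further: blocks dimerization of HCV core protein measured by TR-FRET between tagged core106 pairs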
T3 sequence (Q2Q167 whole entry): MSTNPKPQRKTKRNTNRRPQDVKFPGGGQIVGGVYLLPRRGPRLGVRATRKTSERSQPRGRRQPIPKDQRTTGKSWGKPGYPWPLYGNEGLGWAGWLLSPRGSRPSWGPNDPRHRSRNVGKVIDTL

[20] = target: T2, Induced myeloid leukemia cell differentiation protein Mcl-1; type: functional
[21] = target: fMet-Leu-Phe receptor (Homo sapiens, UniProt P21462); assay: formyl peptide receptor binders – dose response (AID 519); type: functional
[22] = inhibition of ARNT PAS-B/TACC3 complex formation – biochemical, AlphaScreen, cherry-picked samples, confirmation (AID 651703); type: functional, Homo sapiens;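 further: His-tagged ARNT PAS-B domain paired with GST-TACC3 E629A dimer coactivator fragment; potency of inhibitors that break up the complex and lower AlphaScreen signal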
[23] = CCR5-tropic HIV-1 fusion blockers – cell-based, CCR5-tropic Env, dose response (AID 2279); type: functional
[24] = target: T4, Long-chain-fatty-acid--AMP ligase FadD28 (Mycobacterium tuberculosis, UniProt P9WQ59); assay: Fluorescence polarization aasay to screen for inhibitors that compete for the binding of FadD28 to a bisubstrate Measured in Biochemical System Using Plate Reader - 2147-01_Inhibitor_Dose_CherryPick_Activity.; type: functional, Mycobacterium tuberculosis H37Rv
T4 sequence (P9WQ59 whole entry): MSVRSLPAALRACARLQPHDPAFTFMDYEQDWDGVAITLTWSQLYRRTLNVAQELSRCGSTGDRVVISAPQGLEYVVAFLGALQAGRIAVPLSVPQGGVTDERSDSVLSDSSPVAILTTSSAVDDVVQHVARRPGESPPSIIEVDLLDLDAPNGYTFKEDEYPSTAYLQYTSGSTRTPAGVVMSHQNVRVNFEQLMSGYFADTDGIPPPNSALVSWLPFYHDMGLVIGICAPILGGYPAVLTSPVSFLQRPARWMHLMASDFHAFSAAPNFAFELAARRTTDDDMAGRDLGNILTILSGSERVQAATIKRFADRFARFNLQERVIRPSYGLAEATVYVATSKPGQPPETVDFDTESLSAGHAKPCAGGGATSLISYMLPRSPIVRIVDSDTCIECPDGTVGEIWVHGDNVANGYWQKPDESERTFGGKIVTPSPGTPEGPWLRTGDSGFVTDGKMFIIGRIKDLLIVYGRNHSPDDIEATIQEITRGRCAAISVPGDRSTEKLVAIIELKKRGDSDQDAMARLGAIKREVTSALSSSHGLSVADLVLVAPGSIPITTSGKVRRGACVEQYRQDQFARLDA

[25] = target: Genome polyprotein (dengue virus type 2, UniProt P29990); assay: flavivirus cap methylation enzyme inhibition – biochemical, confirmation dose response, primary screen (AID 588689); type: functional
[26] = tested on: Vero; assay: viability of Vero cells under compound – cytotoxicity control for flavivirus capping enzyme inhibitors (AID 588742); type: functional; settings: Chlorocebus sabaeus
[27] = viability loss in THP-1 monocytes – THP-1 cells, cytotoxicity control for Vif-APOBEC3G degradation inhibitor project, dose response (AID 1117359); type: functional; settings: THP-1
[28] = target: T5, DNA repair protein RAD52 homolog (Homo sapiens, UniProt P43351); type: functional, biochemical
T5 sequence (P43351 whole entry): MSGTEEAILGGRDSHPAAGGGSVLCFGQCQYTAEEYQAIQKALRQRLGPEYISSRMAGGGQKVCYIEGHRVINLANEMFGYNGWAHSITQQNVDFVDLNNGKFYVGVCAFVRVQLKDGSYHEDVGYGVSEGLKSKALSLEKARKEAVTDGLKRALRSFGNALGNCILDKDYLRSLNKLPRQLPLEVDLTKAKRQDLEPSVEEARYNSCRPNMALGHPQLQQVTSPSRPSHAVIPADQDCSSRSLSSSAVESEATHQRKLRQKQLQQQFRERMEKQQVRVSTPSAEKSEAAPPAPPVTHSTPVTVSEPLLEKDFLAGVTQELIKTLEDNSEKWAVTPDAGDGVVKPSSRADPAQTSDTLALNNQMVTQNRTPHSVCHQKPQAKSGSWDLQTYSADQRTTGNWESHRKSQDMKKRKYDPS

[29] = reduced cellular PGC1a acetyl-lysine signal – cell-based, cherry-picked samples, dose response (AID 720514); type: functional;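 further: potency may reflect raised or lowered acetylation signal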
[30] = loss of viability in HepG2 cells – cell-based, CellTiter-Glo, cherry-picked, cytotoxicity control for Shn3 inhibitor project, dose response (AID 624134); type: functional
[31] = general mammalian cell viability loss – activator set, cherry-pick, cytotoxicity control for miR-122 modulator project, dose response (AID 720690); type: functional, cell-based;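 further: HEK293T human cells scored for general mammalian cytotoxicity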
[32] = reduction of Shn3 3'UTR-driven luciferase in osteoblasts – cell-based, Clone20 osteoblasts, firefly luciferase, cherry-picked, dose response (AID 624132); type: functional;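 further: firefly luciferase luminescence from reporter carrying the Shn3 3'UTR in osteoblasts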
[33] = general mammalian cell viability loss – inhibitor set, cherry-pick, set 2, cytotoxicity control for miR-122 modulator project, dose response (AID 720697); type: functional, cell-based
[34] = tested on: HEK293; assay: EBV LMP1 TES2 canonical NF-kB signalling blockers – cell-based, HEK293, luciferase, cherry-pick, dose response (AID 588343); type: functional; settings: Homo sapiens
[35] = activation of miR-122 Renilla sensor silencing – cell-based, Huh7 psiCHECK-miR122, Renilla luciferase, cherry-picked, dose response (AID 651956); type: functional;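 further: huh7 hepatoma cells stably carrying a psiCHECK-2 miR-122 sensor plasmid; renilla luciferase signal reporting endogenous miR-122 activity after 48 h compound exposure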
[36] = non-specific 3'UTR reporter inhibition in Clone20-Shn3RL – cell-based, Renilla luciferase, cherry-picked, counter-screen for Shn3 inhibitor project, dose response (AID 624133); type: functional

N#C[C@@H]1[C@H](c2ccccc2C2=CCCCC2)[C@H](CO)N1S(=O)(=O)c1ccccc1
AC50 [1]: 13.1 µM (active)

CC(C(O)c1ccccc1)N(C)CCOC(c1ccccc1)c1ccccc1 (stereo not drawn) [DIFETEROL]
IC50 [2]: > 33.3 µM (inactive)

C=CCSc1nsc(N)n1
IC50 [3]: > 100 µM (not active)

C[C@@H]1CN([C@@H](C)CO)C(=O)c2cc(NC(=O)Nc3ccc(C(F)(F)F)cc3)ccc2O[C@@H](C)CCCCO[C@H]1CN(C)Cc1ccc2c(c1)OCO2
AC50 [4]: 29 µM (active)
AC50 [5]: 9.82 µM (active)
AC50 [6]: 14.3 µM (active)
AC50 [7]: 24 µM (active)

O=C(NCc1nnc(S)n1-c1ccc(Br)cc1)c1ccc(S(=O)(=O)N2CCOCC2)cc1
EC50 [8]: > 79.4 µM (not active)
EC50 [9]: > 79.4 µM (not active)
EC50 [10]: > 79.4 µM (not active)

O=C1C(Nc2ccc(F)cc2F)=C(N2CCCC2)C(=O)c2ccccc21
AC50 [11]: 8.05 µM (active)
AC50 [12]: 2.35 µM (active)
AC50 [13]: 0.677 µM (active)

O=C1C(Nc2ccc(Cl)c(Cl)c2)=C(N2CCCC2)C(=O)c2ccccc21
AC50 [11]: > 70 µM (inactive)
AC50 [12]: 29.2 µM (active)
AC50 [13]: 8.91 µM (active)

O=C(NC1=C(N2CCOCC2)C(=O)c2ccccc2C1=O)c1ccccc1
AC50 [14]: 34.6 µM (active)
AC50 [15]: 31.9 µM (active)

COc1ccc(Cc2nnc(NC(=O)Cc3cccs3)s2)cc1OC
IC50 [16]: 5.14 µM (active)
IC50 [17]: > 109 µM (not active)
IC50 [18]: 19.1 µM (active)
IC50 [19]: > 49.8 µM (not active)
IC50 [20]: 1.97 µM (active)

O=C(C1=C(O)C(=O)N(CCOCCO)C1c1cccs1)c1cccs1 (stereo not drawn)
Ki [21]: 21.4 µM (inactive)

O=C(N/N=C/c1cnc(N2CCCCC2)s1)c1ccc(Cl)cc1
EC50 [8]: > 79.4 µM (not active)
EC50 [9]: > 79.4 µM (not active)
EC50 [10]: > 79.4 µM (not active)

O=C(NC1=C(N2CCSCC2)C(=O)c2ccccc2C1=O)c1ccccc1
AC50 [14]: 40.7 µM (active)
AC50 [15]: 26.9 µM (active)

CC(C(=O)Nc1ccc(O)c(C(=O)O)c1)N1C(=O)/C(=C/c2cccs2)SC1=S (stereo not drawn)
AC50 [22]: 132 µM (active)
IC50 [23]: > 50 µM (active)
AC50 [24]: > 100 µM (inactive)
IC50 [25]: 41.1 µM (active)
CC50 [26]: > 40 µM (active)

CC1=CC(C)(C)N=C(Nc2nc(C)c3cc(C)cc(C)c3n2)N1
CC50 [27]: 37.6 µM (active)
AC50 [28]: 5.16 µM (active)

C[C@H](CO)N1C[C@H](C)[C@H](CN(C)C(=O)NC2CCCCC2)Oc2cc(C#Cc3ccc(F)cc3)ccc2S1(=O)=O
AC50 [6]: 7.83 µM (active)
AC50 [29]: 12.8 µM (active)

O=C(NCCCN1CCCC1=O)c1ccc(Cl)c(NS(=O)(=O)c2ccc(F)cc2)c1
IC50 [3]: > 100 µM (not active)

CCN1CCN(Cc2ccc(NC(=O)c3ccc(C)c(NC(=O)c4cnc5cc(C(F)(F)F)ccc5c4O)c3)cc2C(F)(F)F)CC1
AC50 [30]: 5.71 µM (active)
AC50 [31]: 4.48 µM (active)
AC50 [32]: 3.13 µM (active)
AC50 [33]: 4.86 µM (active)
AC50 [34]: 2.74 µM (active)
AC50 [35]: 5.11 µM (active)
AC50 [29]: 5.48 µM (active)
AC50 [36]: 6.23 µM (active)

COCCN1C(=O)/C(=C/c2ccc(OCc3ccc(C(=O)O)cc3)c(OC)c2)S/C1=N\c1ccccc1
IC50 [23]: 40.2 µM (active)
